Data published in the supplement of paper PMC10307832.

What was measured:
Assay in all cases: relative viability (nuclei count vs DMSO), 5 days (fraction); higher = more cells survive
Alisertib + Decitabine = compound: COc1cc(Nc2ncc3c(n2)-c2ccc(Cl)cc2C(c2c(F)cccc2OC)=NC3)ccc1C(=O)O [Alisertib] + Nc1ncn([C@H]2C[C@H](O)[C@@H](CO)O2)c(=O)n1 [Decitabine] (partner 2 µM)
Outline: (§1)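 Relative viability is defined as nuclei in treated wells over nuclei in vehicle wells. Duplicate plates were run and medians reported. Lung cancer cell lines in 1536-well plates were dosed by pin tool one day after seeding, with one drug or with a fixed anchor-drug dose plus five library-drug doses (not always all listed) in √10 steps, and nuclei were counted after 5 days.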

Alisertib + Crizotinib = compound: COc1cc(Nc2ncc3c(n2)-c2ccc(Cl)cc2C(c2c(F)cccc2OC)=NC3)ccc1C(=O)O [Alisertib] + C[C@@H](Oc1cc(-c2cnn(C3CCNCC3)c2)cnc1N)c1c(Cl)ccc(F)c1Cl [Crizotinib] (partner 1 µM)
Outline: as §1

Alisertib + Phenformin = compound: COc1cc(Nc2ncc3c(n2)-c2ccc(Cl)cc2C(c2c(F)cccc2OC)=NC3)ccc1C(=O)O [Alisertib] + N=C(N)NC(=N)NCCc1ccccc1 [Phenformin] (partner 250 µM)
Outline: as §1

Alisertib + Navitoclax = compound: COc1cc(Nc2ncc3c(n2)-c2ccc(Cl)cc2C(c2c(F)cccc2OC)=NC3)ccc1C(=O)O [Alisertib] + CC1(C)CCC(c2ccc(Cl)cc2)=C(CN2CCN(c3ccc(C(=O)NS(=O)(=O)c4ccc(N[C@H](CCN5CCOCC5)CSc5ccccc5)c(S(=O)(=O)C(F)(F)F)c4)cc3)CC2)C1 [Navitoclax] (partner 0.5 µM)
Outline: as §1

Cell Line	relative viability (Alisertib + Decitabine; first compound 0.005 µM)	relative viability (Alisertib + Decitabine; first compound 0.01581 µM)	relative viability (Alisertib + Decitabine; first compound 0.05 µM)	relative viability (Alisertib + Decitabine; first compound 0.1581 µM)	relative viability (Alisertib + Decitabine; first compound 0.5 µM)	relative viability (Alisertib + Crizotinib; first compound 0.005 µM)	relative viability (Alisertib + Crizotinib; first compound 0.01581 µM)	relative viability (Alisertib + Crizotinib; first compound 0.05 µM)	relative viability (Alisertib + Crizotinib; first compound 0.1581 µM)	relative viability (Alisertib + Crizotinib; first compound 0.5 µM)	relative viability (Alisertib + Phenformin; first compound 0.005 µM)	relative viability (Alisertib + Phenformin; first compound 0.01581 µM)	relative viability (Alisertib + Phenformin; first compound 0.05 µM)	relative viability (Alisertib + Phenformin; first compound 0.1581 µM)	relative viability (Alisertib + Phenformin; first compound 0.5 µM)	relative viability (Alisertib + Navitoclax; first compound 0.005 µM)	relative viability (Alisertib + Navitoclax; first compound 0.01581 µM)	relative viability (Alisertib + Navitoclax; first compound 0.05 µM)	relative viability (Alisertib + Navitoclax; first compound 0.1581 µM)	relative viability (Alisertib + Navitoclax; first compound 0.5 µM)
NCI-H727	0.843	0.892	0.81	0.617	0.537	0.691	0.675	0.361	0.315	0.267	0.514	0.504	0.262	0.276	0.352	0.389	0.477	0.183	0.166	0.152
NCI-H838	0.402	0.334	0.253	0.213	0.198	0.821	0.727	0.281	0.218	0.186	0.444	0.446	0.276	0.183	0.144	1.12	1.1	0.667	0.306	0.169
NCI-H1355	0.347	0.358	0.229	0.177	0.154	1.08	0.906	0.737	0.215	0.186	0.4	0.353	0.23	0.182	0.189	0.884	0.923	0.633	0.205	0.16
NCI-H1437	0.5	0.519	0.439	0.27	0.209	0.855	0.878	0.45	0.338	0.141	0.236	0.286	0.251	0.142	0.118	1.02	0.892	0.498	0.282	0.144
NCI-H1650	0.336	0.326	0.2	0.162	0.189	0.975	0.71	0.359	0.255	0.276	0.38	0.381	0.167	0.137	0.141	0.967	0.613	0.286	0.145	0.131
NCI-H1651	0.557	0.433	0.339	0.182	0.161	0.898	0.807	0.41	0.204	0.256	0.218	0.222	0.147	0.101	0.175	1.01	0.832	0.517	0.14	0.2
NCI-H1666	0.785	0.63	0.615	0.537	0.441	0.934	0.729	0.474	0.349	0.363	0.522	0.49	0.506	0.426	0.344	0.94	0.779	0.435	0.281	0.291
NCI-H1734	0.497	0.466	0.324	0.24	0.177	0.669	0.523	0.357	0.227	0.155	0.314	0.298	0.256	0.221	0.176	0.851	0.782	0.366	0.164	0.0931
NCI-H1755	0.643	0.673	0.543	0.413	0.348	0.853	0.73	0.415	0.366	0.294	0.558	0.498	0.517	0.397	0.262	0.928	0.99	0.682	0.356	0.181
NCI-H1792	0.575	0.496	0.213	0.132	0.0838	0.939	0.91	0.543	0.201	0.0858	0.299	0.253	0.107	0.13	0.0705	0.608	0.6	0.494	0.096	0.0626
NCI-H1915	0.257	0.249	0.197	0.198	0.176	0.777	0.721	0.307	0.317	0.192	0.309	0.274	0.241	0.229	0.173	0.686	0.577	0.275	0.235	0.13
NCI-H1944	0.401	0.436	0.324	0.266	0.186	1.05	1.04	0.504	0.386	0.222	0.182	0.206	0.193	0.166	0.112	1.06	1.01	0.969	0.415	0.194
NCI-H1975	0.32	0.359	0.142	0.191	0.153	0.945	0.728	0.301	0.27	0.193	0.405	0.375	0.265	0.176	0.137	1.14	1.01	0.503	0.344	0.175
NCI-H1993	0.356	0.561	0.539	0.383	0.356	0.564	0.744	0.6	0.573	0.527	0.455	0.495	0.5	0.511	0.449	1.12	1.04	0.463	0.499	0.542
NCI-H2009	0.338	0.388	0.292	0.194	0.168	0.927	0.916	0.453	0.238	0.175	0.486	0.462	0.312	0.228	0.203	1.08	1.11	0.349	0.302	0.105
NCI-H2023	0.252	0.193	0.145	0.109	0.0849	0.721	0.64	0.345	0.142	0.112	0.428	0.388	0.28	0.157	0.0966	0.955	0.885	0.656	0.282	0.132
